Test results taken from PubChem BioAssay (NCI).
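Grown in 96-well plates, cells were treated for 48 hours with each compound at five concentrations. Insufficient inhibition: endpoint recorded as highest concentration tested. TGI: total growth inhibition.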

What was measured:
Assay in all cases: growth of human tumour cells (NCI), 48 h
786-0 renal = system: 786-0 renal
A549 NSCLC = system: A549 NSCLC
ACHN renal = system: ACHN renal
CAKI-1 renal = system: CAKI-1 renal
CCRF-CEM leukemia = system: CCRF-CEM leukemia
COLO 205 colon = system: COLO 205 colon
DLD-1 colon = system: DLD-1 colon
DMS 273 small cell lung = system: DMS 273 small cell lung
HCC-2998 colon = system: HCC-2998 colon
HCT-15 colon = system: HCT-15 colon
HL-60(TB) leukemia = system: HL-60(TB) leukemia
HOP-62 NSCLC = system: HOP-62 NSCLC
HOP-92 NSCLC = system: HOP-92 NSCLC
HT29 colon = system: HT29 colon
IGROV1 ovarian = system: IGROV1 ovarian
K-562 leukemia = system: K-562 leukemia
KM12 colon = system: KM12 colon
KM20L2 colon = system: KM20L2 colon
LOX IMVI melanoma = system: LOX IMVI melanoma
LXFL 529 NSCLC = system: LXFL 529 NSCLC
M14 melanoma = system: M14 melanoma
M19-MEL melanoma = system: M19-MEL melanoma
MALME-3M melanoma = system: MALME-3M melanoma
MOLT-4 leukemia = system: MOLT-4 leukemia
NCI-H226 lung = system: NCI-H226 lung
NCI-H23 lung = system: NCI-H23 lung
NCI-H460 lung = system: NCI-H460 lung
NCI-H522 lung = system: NCI-H522 lung
OVCAR-3 ovarian = system: OVCAR-3 ovarian
OVCAR-4 ovarian = system: OVCAR-4 ovarian
OVCAR-5 ovarian = system: OVCAR-5 ovarian
OVCAR-8 ovarian = system: OVCAR-8 ovarian
RPMI-8226 leukemia = system: RPMI-8226 leukemia
RXF 393 renal = system: RXF 393 renal
SF-268 CNS = system: SF-268 CNS
SF-295 CNS = system: SF-295 CNS
SF-539 CNS = system: SF-539 CNS
SK-MEL-2 melanoma = system: SK-MEL-2 melanoma
SK-MEL-28 melanoma = system: SK-MEL-28 melanoma
SK-OV-3 ovarian = system: SK-OV-3 ovarian
SN12C renal = system: SN12C renal
SNB-19 CNS = system: SNB-19 CNS
SNB-75 CNS = system: SNB-75 CNS
SR leukemia = system: SR leukemia
SW-620 colon = system: SW-620 colon
TK-10 renal = system: TK-10 renal
U251 CNS = system: U251 CNS
UACC-257 melanoma = system: UACC-257 melanoma
UACC-62 melanoma = system: UACC-62 melanoma
UO-31 renal = system: UO-31 renal
XF 498 CNS = system: XF 498 CNS
A498 renal = system: A498 renal
DMS 114 small cell lung = system: DMS 114 small cell lung
EKVX NSCLC = system: EKVX NSCLC
HCT-116 colon = system: HCT-116 colon
HOP-18 NSCLC = system: HOP-18 NSCLC
SK-MEL-5 melanoma = system: SK-MEL-5 melanoma
SNB-78 CNS = system: SNB-78 CNS

O=S(=O)(c1ccccc1)C(CN1CCCCC1)S(=O)(=O)c1ccccc1 gave a TGI (786-0 renal) greater than 100 µM, a TGI (A549 NSCLC) greater than 100 µM and a TGI (ACHN renal) greater than 100 µM. The TGI (CAKI-1 renal) was greater than 100 µM, the TGI (CCRF-CEM leukemia) was greater than 100 µM and the TGI (COLO 205 colon) was greater than 100 µM. The TGI (DLD-1 colon) was greater than 100 µM, the TGI (DMS 273 small cell lung) was greater than 100 µM and the TGI (HCC-2998 colon) was greater than 100 µM. The TGI (HCT-15 colon) was greater than 100 µM, the TGI (HL-60(TB) leukemia) was greater than 100 µM and the TGI (HOP-62 NSCLC) was greater than 100 µM. For the same compound, the TGI (HOP-92 NSCLC) was greater than 100 µM, the TGI (HT29 colon) was greater than 100 µM and the TGI (IGROV1 ovarian) was greater than 100 µM. For the same compound, the TGI (K-562 leukemia) was greater than 100 µM, the TGI (KM12 colon) was greater than 100 µM and the TGI (KM20L2 colon) was greater than 100 µM. For the same compound, the TGI (LOX IMVI melanoma) was greater than 100 µM, the TGI (LXFL 529 NSCLC) was greater than 100 µM and the TGI (M14 melanoma) was greater than 100 µM. For the same compound, the TGI (M19-MEL melanoma) was greater than 100 µM, the TGI (MALME-3M melanoma) was greater than 100 µM and the TGI (MOLT-4 leukemia) was greater than 100 µM. It also gave a TGI (NCI-H226 lung) greater than 100 µM, a TGI (NCI-H23 lung) greater than 100 µM and a TGI (NCI-H460 lung) greater than 100 µM. The TGI (NCI-H522 lung) was greater than 100 µM, the TGI (OVCAR-3 ovarian) was greater than 100 µM and the TGI (OVCAR-4 ovarian) was greater than 100 µM. The TGI (OVCAR-5 ovarian) was greater than 100 µM, the TGI (OVCAR-8 ovarian) was greater than 100 µM and the TGI (RPMI-8226 leukemia) was greater than 100 µM. It also gave a TGI (RXF 393 renal) greater than 100 µM, a TGI (SF-268 CNS) greater than 100 µM and a TGI (SF-295 CNS) greater than 100 µM. For the same compound, the TGI (SF-539 CNS) was greater than 100 µM, the TGI (SK-MEL-2 melanoma) was greater than 100 µM and the TGI (SK-MEL-28 melanoma) was greater than 100 µM. It also gave a TGI (SK-OV-3 ovarian) greater than 100 µM, a TGI (SN12C renal) greater than 100 µM and a TGI (SNB-19 CNS) greater than 100 µM. For the same compound, the TGI (SNB-75 CNS) was greater than 100 µM, the TGI (SR leukemia) was greater than 100 µM and the TGI (SW-620 colon) was greater than 100 µM. For the same compound, the TGI (TK-10 renal) was greater than 100 µM, the TGI (U251 CNS) was greater than 100 µM and the TGI (UACC-257 melanoma) was greater than 100 µM. It also gave a TGI (UACC-62 melanoma) greater than 100 µM, a TGI (UO-31 renal) greater than 100 µM and a TGI (XF 498 CNS) greater than 100 µM.
CCOC(=O)C1=C(O)C(=O)c2ccsc2C1=O was tested, and the TGI (786-0 renal) was greater than 100 µM, the TGI (A498 renal) was greater than 100 µM and the TGI (A549 NSCLC) was greater than 100 µM. It also gave a TGI (ACHN renal) greater than 100 µM, a TGI (CAKI-1 renal) greater than 100 µM and a TGI (CCRF-CEM leukemia) greater than 100 µM. It also gave a TGI (COLO 205 colon) greater than 100 µM, a TGI (DLD-1 colon) greater than 100 µM and a TGI (DMS 114 small cell lung) greater than 100 µM. It also gave a TGI (DMS 273 small cell lung) greater than 100 µM, a TGI (EKVX NSCLC) greater than 100 µM and a TGI (HCC-2998 colon) greater than 100 µM. The TGI (HCT-116 colon) was greater than 100 µM, the TGI (HCT-15 colon) was greater than 100 µM and the TGI (HL-60(TB) leukemia) was greater than 100 µM. For the same compound, the TGI (HOP-18 NSCLC) was greater than 100 µM, the TGI (HOP-62 NSCLC) was greater than 100 µM and the TGI (HOP-92 NSCLC) was greater than 100 µM. The TGI (HT29 colon) was greater than 100 µM, the TGI (IGROV1 ovarian) was greater than 100 µM and the TGI (K-562 leukemia) was greater than 100 µM. It also gave a TGI (KM12 colon) greater than 100 µM, a TGI (KM20L2 colon) greater than 100 µM and a TGI (LOX IMVI melanoma) greater than 100 µM. The TGI (M14 melanoma) was greater than 100 µM, the TGI (M19-MEL melanoma) was 40.5 µM and the TGI (MALME-3M melanoma) was greater than 100 µM. It also gave a TGI (MOLT-4 leukemia) greater than 100 µM, a TGI (NCI-H226 lung) greater than 100 µM and a TGI (NCI-H23 lung) greater than 100 µM. For the same compound, the TGI (NCI-H460 lung) was greater than 100 µM, the TGI (NCI-H522 lung) was greater than 100 µM and the TGI (OVCAR-3 ovarian) was greater than 100 µM. The TGI (OVCAR-4 ovarian) was greater than 100 µM, the TGI (OVCAR-5 ovarian) was greater than 100 µM and the TGI (OVCAR-8 ovarian) was greater than 100 µM. For the same compound, the TGI (RPMI-8226 leukemia) was greater than 100 µM, the TGI (RXF 393 renal) was greater than 100 µM and the TGI (SF-268 CNS) was greater than 100 µM. The TGI (SF-295 CNS) was greater than 100 µM, the TGI (SF-539 CNS) was greater than 100 µM and the TGI (SK-MEL-2 melanoma) was greater than 100 µM. The TGI (SK-MEL-28 melanoma) was greater than 100 µM, the TGI (SK-MEL-5 melanoma) was greater than 100 µM and the TGI (SK-OV-3 ovarian) was greater than 100 µM. The TGI (SN12C renal) was greater than 100 µM, the TGI (SNB-19 CNS) was greater than 100 µM and the TGI (SNB-75 CNS) was greater than 100 µM. The TGI (SNB-78 CNS) was greater than 100 µM, the TGI (SR leukemia) was greater than 100 µM and the TGI (SW-620 colon) was greater than 100 µM. The TGI (TK-10 renal) was greater than 100 µM, the TGI (U251 CNS) was greater than 100 µM and the TGI (UACC-257 melanoma) was greater than 100 µM. It also gave a TGI (UACC-62 melanoma) greater than 100 µM and a TGI (UO-31 renal) greater than 100 µM.
